Data on 21 compounds can be found in US4450269A, “Mono-5-substituted-3-chloro-4H-1,2,6-thiadiazin-4-one antifungal agents” (FMC Corporation, priority 1980, dated 1984).

SMILES strings stand for the structures.

One assay deals with Pythium ultimum. Description: Mycelial growth test. In kind it is cell-based. The conditions noted are these: Globisporangium ultimum, 72 h, PU, read-out: Percent Fungus Growth Inhibition.
A further assay has as its system Fusarium solani. In words: Mycelial growth test. The assay is classed as cell-based. The conditions noted are these: Fusarium solani, 72 h; for inhibition at 5 ppm / inhibition at 10 ppm / inhibition at 20 ppm: PS, 72 hours, read-out: Percent Fungus Growth Inhibition; for inhibition at 40 ppm: read-out: Percent Fungus Growth Inhibition, PS, 40 ppm, 72 hours.

For orientation: inhibition means how much of the control response was suppressed. Turning to `O=C(Nc1ccccc1)Oc1ccc(Oc2nsnc(Cl)c2=O)cc1` [Compound 37, 3-chloro-5-[4-(phenylaminocarbonyloxy)phenoxy]-4H-1,2,6,-thiadiazin-4-one], in the assay with Pythium ultimum, the inhibition at 5 ppm came to 100%, the inhibition at 10 ppm was determined as 0%, the inhibition at 20 ppm came to 20% and the inhibition at 40 ppm turned out to be 100%. In addition, in the assay on Fusarium solani, the inhibition at 5 ppm amounted to 26%, the inhibition at 10 ppm was found to be 16%, the inhibition at 20 ppm was determined as 26% and the inhibition at 40 ppm came to 42%.
With `O=C(OCc1ccccc1)Oc1ccc(Oc2nsnc(Cl)c2=O)cc1` [Compound 38, 3-chloro-5-[4-(phenylmethoxycarbonyloxy)phenoxyl]-4H-1,2,6-thiadiazin-4-one], in the assay on Pythium ultimum, the inhibition at 5 ppm was 0%, the inhibition at 10 ppm amounted to 0%, the inhibition at 20 ppm turned out to be 0% and the inhibition at 40 ppm stood at 0%. In the assay with Fusarium solani, the inhibition at 5 ppm was found to be 10%, the inhibition at 10 ppm is 20%, the inhibition at 20 ppm was found to be 30% and the inhibition at 40 ppm was found to be 35%.
Regarding `CSc1ccc(Oc2nsnc(Cl)c2=O)cc1` [Compound 39, 3-chloro-5-[(4-methylthio)phenoxy]-4H-1,2,6,-thiadiazin-4-one], in the assay with Pythium ultimum, the inhibition at 5 ppm was 0%, the inhibition at 10 ppm was determined as 24%, the inhibition at 20 ppm was determined as 100% and the inhibition at 40 ppm is 100%. In the assay on Fusarium solani, the inhibition at 5 ppm stood at 42%, the inhibition at 10 ppm stood at 79%, the inhibition at 20 ppm is 68% and the inhibition at 40 ppm came out at 42%.
With `C[S+]([O-])c1ccc(Oc2nsnc(Cl)c2=O)cc1` (stereo not drawn) [Compound 40, 3-chloro-5-[(4-methylsulfinyl)phenoxy]-4H-1,2,6,-thiadiazin-4-one], in the assay on Pythium ultimum, the inhibition at 5 ppm was found to be 0%, the inhibition at 10 ppm worked out at 100%, the inhibition at 20 ppm was 100% and the inhibition at 40 ppm came out at 100%. Besides, in the assay on Fusarium solani, the inhibition at 5 ppm stood at 5%, the inhibition at 10 ppm is 16%, the inhibition at 20 ppm worked out at 26% and the inhibition at 40 ppm was 53%.
Consider `CC(=O)Nc1cccc(Oc2nsnc(Cl)c2=O)c1` [Compound 42, 3-[(3-N--acetylamino)-phenoxy]-5-chloro-4H--1,2,6-thiadiazin-4-one], for which, in the assay with Pythium ultimum, the inhibition at 5 ppm amounted to 0%, the inhibition at 10 ppm was 42%, the inhibition at 20 ppm was 100% and the inhibition at 40 ppm turned out to be 100%. Also, in the assay with Fusarium solani, the inhibition at 5 ppm stood at 31%, the inhibition at 10 ppm was 19%, the inhibition at 20 ppm was determined as 13% and the inhibition at 40 ppm is 38%.
On to `CC(=O)Nc1ccccc1Oc1nsnc(Cl)c1=O` [Compound 43, 3-[(2-acetylamino)-phenoxy]-5-chloro-4H--1,2,6-thiadiazin-4-one], for which, in the assay with Pythium ultimum, the inhibition at 5 ppm was 0%, the inhibition at 10 ppm is 0%, the inhibition at 20 ppm turned out to be 0% and the inhibition at 40 ppm was 0%. In addition, in the assay on Fusarium solani, the inhibition at 5 ppm turned out to be 0%, the inhibition at 10 ppm came out at 0%, the inhibition at 20 ppm was 0% and the inhibition at 40 ppm was found to be 0%.
In the case of `O=c1c(Cl)nsnc1Oc1cccc(C(F)(F)F)c1` [Compound 44, 3-chloro-5-[(3-trifluoromethyl)phenoxy]-4H--1,2,6-thiadiazin-4-one], in the assay on Pythium ultimum, the inhibition at 5 ppm was 100%, the inhibition at 10 ppm came out at 100%, the inhibition at 20 ppm was 100% and the inhibition at 40 ppm was 100%. For the same compound, in the assay with Fusarium solani, the inhibition at 5 ppm came to 100%, the inhibition at 10 ppm was determined as 100%, the inhibition at 20 ppm was found to be 100% and the inhibition at 40 ppm amounted to 100%.
For `O=C(O)Cc1ccccc1Oc1nsnc(Cl)c1=O` [Compound 45, 3-(2-carboxymethylphenoxy)-5-chloro-4H--1,2,6-thiadiazin-4-one], in the assay on Pythium ultimum, the inhibition at 5 ppm was found to be 0%, the inhibition at 10 ppm was 42%, the inhibition at 20 ppm came to 69% and the inhibition at 40 ppm amounted to 100%. In the assay on Fusarium solani, the inhibition at 5 ppm is 0%, the inhibition at 10 ppm worked out at 0%, the inhibition at 20 ppm turned out to be 6% and the inhibition at 40 ppm is 31%.
For `N#CCc1ccc(Oc2nsnc(Cl)c2=O)cc1` [Compound 46, 3-chloro-5-[(4-cyanomethyl)-phenoxy]4H--1,2,6-thiadiazin-4-one], in the assay on Pythium ultimum, the inhibition at 5 ppm came to 0%, the inhibition at 10 ppm was found to be 40%, the inhibition at 20 ppm stood at 87% and the inhibition at 40 ppm was determined as 100%. Moreover, in the assay on Fusarium solani, the inhibition at 5 ppm amounted to 35%, the inhibition at 10 ppm was determined as 70%, the inhibition at 20 ppm was 90% and the inhibition at 40 ppm was found to be 100%.
As to `CC(=O)c1ccc(Oc2nsnc(Cl)c2=O)cc1` [Compound 47, 3-(4-acetylphenoxy)-5-chloro-4H--1,2,6-thiadiazin-4-one], in the assay with Pythium ultimum, the inhibition at 5 ppm is 71%, the inhibition at 10 ppm is 100%, the inhibition at 20 ppm was determined as 100% and the inhibition at 40 ppm was found to be 100%. For the same compound, in the assay on Fusarium solani, the inhibition at 5 ppm was found to be 38%, the inhibition at 10 ppm stood at 50%, the inhibition at 20 ppm was determined as 100% and the inhibition at 40 ppm was found to be 100%.
With `CC(=O)c1cccc(Oc2nsnc(Cl)c2=O)c1` [Compound 48, 3-(3-acetylphenoxy)-5-chloro-4H--1,2,6-thiadiazin-4-one], in the assay with Pythium ultimum, the inhibition at 5 ppm is 78%, the inhibition at 10 ppm was determined as 42%, the inhibition at 20 ppm is 100% and the inhibition at 40 ppm turned out to be 100%. In the assay on Fusarium solani, the inhibition at 5 ppm amounted to 38%, the inhibition at 10 ppm amounted to 50%, the inhibition at 20 ppm is 100% and the inhibition at 40 ppm worked out at 100%.
Turning to `CC(=O)c1ccccc1Oc1nsnc(Cl)c1=O` [Compound 49, 3-(2-acetylphenoxy)-5-chloro-4H--1,2,6-thiadiazin-4-one], in the assay on Pythium ultimum, the inhibition at 5 ppm was 47%, the inhibition at 10 ppm was found to be 87%, the inhibition at 20 ppm was 96% and the inhibition at 40 ppm stood at 100%. Besides, in the assay on Fusarium solani, the inhibition at 5 ppm came to 0%, the inhibition at 10 ppm was found to be 7%, the inhibition at 20 ppm amounted to 34% and the inhibition at 40 ppm came out at 67%.
For the compound `O=C(O)c1ccc(Oc2nsnc(Cl)c2=O)cc1` [Compound 50, 3-(4-carboxyphenoxy)-5-chloro-4H--1,2,6-thiadiazin-4-one], in the assay on Pythium ultimum, the inhibition at 5 ppm is 20%, the inhibition at 10 ppm came out at 0%, the inhibition at 20 ppm was determined as 47% and the inhibition at 40 ppm stood at 100%. In addition, in the assay with Fusarium solani, the inhibition at 5 ppm was 25%, the inhibition at 10 ppm was 38%, the inhibition at 20 ppm was found to be 63% and the inhibition at 40 ppm is 100%.
Turning to `COc1ccc(Cl)c(Oc2nsnc(Cl)c2=O)c1` [Compound 51, 3-chloro-5-[(2-chloro-5-methoxy)phenoxy]-4H--1,2,6-thiadiazin-4-one], in the assay with Pythium ultimum, the inhibition at 5 ppm was found to be 0%, the inhibition at 10 ppm was found to be 31%, the inhibition at 20 ppm amounted to 91% and the inhibition at 40 ppm is 100%. In the assay with Fusarium solani, the inhibition at 5 ppm was 60%, the inhibition at 10 ppm worked out at 85%, the inhibition at 20 ppm came out at 100% and the inhibition at 40 ppm worked out at 100%.
On to `O=c1c(Cl)nsnc1Oc1ccc([N+](=O)[O-])cc1Cl` [Compound 53, 3-chloro-5-(2-chloro-4-nitrophenoxy)-4H--1,2,6-thiadiazin-4-one], for which, in the assay on Pythium ultimum, the inhibition at 5 ppm was 20%, the inhibition at 10 ppm was found to be 82%, the inhibition at 20 ppm came out at 100% and the inhibition at 40 ppm turned out to be 100%. Moreover, in the assay on Fusarium solani, the inhibition at 5 ppm is 42%, the inhibition at 10 ppm was found to be 68%, the inhibition at 20 ppm turned out to be 100% and the inhibition at 40 ppm was 100%.
For `Cc1cc(Oc2nsnc(Cl)c2=O)ccc1Cl` [Compound 54, 3-chloro-5-(4-chloro-3-methylphenoxy)-4H--1,2,6-thiadiazin-4-one], in the assay on Pythium ultimum, the inhibition at 5 ppm is 42%, the inhibition at 10 ppm amounted to 60%, the inhibition at 20 ppm came out at 71% and the inhibition at 40 ppm turned out to be 87%. Also, in the assay on Fusarium solani, the inhibition at 5 ppm was found to be 27%, the inhibition at 10 ppm worked out at 30%, the inhibition at 20 ppm came out at 20% and the inhibition at 40 ppm came to 20%.
`Cc1cc(Cl)ccc1Oc1nsnc(Cl)c1=O` [Compound 55, 3-chloro-5-(4-chloro-2-methylphenoxy)-4H--1,2,6-thiadiazin-4-one]: in the assay with Pythium ultimum, the inhibition at 5 ppm was found to be 42%, the inhibition at 10 ppm was 64%, the inhibition at 20 ppm was determined as 33% and the inhibition at 40 ppm worked out at 47%. For the same compound, in the assay with Fusarium solani, the inhibition at 5 ppm amounted to 0%, the inhibition at 10 ppm was 13%, the inhibition at 20 ppm is 17% and the inhibition at 40 ppm is 20%.
As to `Cc1ccc(Cl)c(Oc2nsnc(Cl)c2=O)c1` [Compound 56, 3-chloro-5-[(2-chloro-5-methyl)phenoxy]-4H--1,2,6-thiadiazin-4-one], in the assay with Pythium ultimum, the inhibition at 5 ppm was determined as 0%, the inhibition at 10 ppm came out at 67%, the inhibition at 20 ppm was 100% and the inhibition at 40 ppm came out at 100%. In the assay on Fusarium solani, the inhibition at 5 ppm was 70%, the inhibition at 10 ppm was 100%, the inhibition at 20 ppm turned out to be 100% and the inhibition at 40 ppm worked out at 100%.
With `Cc1ccc(Oc2nsnc(Cl)c2=O)c(Br)c1` [Compound 57, 3-[(2-bromo-4-methyl)-phenoxy]-5-chloro-4H--1,2,6-thiadiazin-4-one], in the assay on Pythium ultimum, the inhibition at 5 ppm worked out at 42%, the inhibition at 10 ppm stood at 60%, the inhibition at 20 ppm stood at 100% and the inhibition at 40 ppm is 100%. Moreover, in the assay on Fusarium solani, the inhibition at 5 ppm was 88%, the inhibition at 10 ppm was determined as 100%, the inhibition at 20 ppm worked out at 100% and the inhibition at 40 ppm worked out at 100%.
Take `Cc1cc(Cl)c(Oc2nsnc(Cl)c2=O)cc1C` [Compound 58, 3-chloro-5-[(2-chloro-4,5-dimethyl)phenoxy]-4H--1,2,6-thiadiazin-4-one]: in the assay on Pythium ultimum, the inhibition at 5 ppm amounted to 13%, the inhibition at 10 ppm was found to be 24%, the inhibition at 20 ppm turned out to be 0% and the inhibition at 40 ppm was determined as 13%. Besides, in the assay with Fusarium solani, the inhibition at 5 ppm came out at 56%, the inhibition at 10 ppm was 56%, the inhibition at 20 ppm came to 56% and the inhibition at 40 ppm turned out to be 44%.
Turning to `Cc1cc(Oc2nsnc(Cl)c2=O)cc(C)c1Cl` [Compound 59, 3-chloro-5-[(4-chloro-3,5-dimethyl)phenoxy]-4H--1,2,6-thiadiazin-4-one], in the assay with Pythium ultimum, the inhibition at 5 ppm was determined as 0%, the inhibition at 10 ppm was determined as 0%, the inhibition at 20 ppm worked out at 0% and the inhibition at 40 ppm turned out to be 29%. For the same compound, in the assay with Fusarium solani, the inhibition at 5 ppm came out at 50%, the inhibition at 10 ppm is 56%, the inhibition at 20 ppm was determined as 69% and the inhibition at 40 ppm came out at 56%.
